Results as given in patent US5175290A, “8-(oxo-substituted cycloalkyl)xanthines” (Marion Merrell Dow Inc., priority 1988, dated 1992).
Read-outs that look alike come from different tables or passages of the source.

Tests used:
[1] = test system: basal heart rate and basal blood pressure; assay: Cardiovascular effects (basal heart rate and basal blood pressure) in guinea pigs; format: in vivo, guinea pig; conditions: i.v., at 2 × histamine-reversal ED50, * = not significant
Protocol: Cardiovascular effects (basal heart rate and basal blood pressure) in guinea pigs
Male guinea pigs were anesthetized with urethane and the carotid artery and jugular vein were cannulated. Aortic blood pressure was recorded from a pressure transducer and the signal was integrated to give a heart rate signal.
Each animal received a single intravenous injection of one compound. The dose of each compound was based upon the ED50 value from the reversal of histamine-induced bronchoconstriction in the anesthetized guinea pig. Thus the various compounds were studied at equipotent bronchodilator doses (2×ED50). A group of control animals received injections of vehicle only. Changes in heart rate and blood pressure from pre-injection baseline values produced by drugs or vehicle were compared.

[2] = test system: pentobarbital-induced heart failure; assay: Pentobarbital-induced heart failure in rats; format: in vivo, rat (Sprague-Dawley); conditions: for ED40: Rattus norvegicus, iv; for heart rate, maximum recovery dose: bracketed value under RD40 heart rate
Protocol: Adult male Sprague-Dawley rats (350-450 g) were used in this example. Animals were anesthetized using sodium pentobarbital (40-50 mg/kg, i.p.) and placed supine on a heated (37° C.) surgical table. A 7F pressure tipped catheter (Millar) was inserted into the left carotid artery and advanced into the left ventricle of the heart to measure left ventricular pressure (LVP), dP/dt and heart rate (HR). Mean arterial blood pressure (MABP) was monitored via a PE-50 catheter placed into a femoral artery. The right jugular vein and a femoral vein were catheterized with PE-10 tubing for infusion of the test compounds and pentobarbital, respectively.
Following bilateral cervical vagotomy, a 15 gauge blunt needle was inserted into the trachea via a midcervical tracheostomy to ventilate the animals (60/minute, TV=2.3 mL) Each animal was allowed a 5-10 minute period to stabilize and control measurements were recorded. A dose of 60-70 mg/kg of pentobarbital wa then administered slowly over a 5 minute period via the femoral vein until MABP was stabilized at 60 mm Hg, at which time an infusion of 0.2 mg/kg/minute of pentobarbital was begun and continued throughout the experiment. Each animal was then allowed 10-15 minutes to stabilize and values representing heart failure were recorded. Control and test compounds were tested in a cumulative-dose manner using at least four doses. Dose-related effects, e.g., dP/dt and MABP were continually monitored during a 15 minute recovery period between each dose. At the time of the peak dP/dt response during each recovery period, values for all four variables were recorded. The animals were sacrificed using a lethal injection of pentobarbital 15 minutes following the last dose of the test compound. Only one compound was administered to each animal.
The RD40 is defined as the dose of compound required to achieve a 40% recovery in the variable (dP/dt, MABP) being measured. It was calculated for each compound using an SAS® probit analysis on a Vax computer. Briefly, the program transforms the dose into log 10 and calculates the line of least squares using the mean value for recovery at each dose. In most instances the RD40 was then extrapolated, but in those instances where a full dose-response curve was not achieved because of the limited solubility of the compound, the RD40 was estimated.

[3] = test system: histamine-induced bronchoconstriction; assay: Reversal of histamine-induced bronchoconstriction in the anesthetized guinea pig; format: in vivo; conditions: guinea pigs; for ED50: Cavia porcellus, iv, dose required to reverse the histamine response by 50%; for maximum effect (maximum percent reversal of histamine-induced bronchoconstriction): i.v.
Protocol: Reversal of histamine-induced bronchoconstriction in the anesthetized guinea pig
A modification of the general method of H. Konzett and R. Rossler [Naunyn-Schmiedeberg's Arch. Pharmakol.
Male Duncan-Hartley guinea pigs (400-600) were anesthetized using an intratraperitoneal injection of urethane (1.5 g/kg). After the neck area was shaved, the animal was placed in the dorsal recumbent position on a Narco temperature controlled surgical board (37° C.) to maintain body temperature. Following a midline neck incision, the carotid artery and jugular vein were cannulated using PE50 polyethylene tubing. Both catheters were flushed with heparinized saline (20 U/mL) to prevent clotting. The trachea was then cannulated using a 15 gauge Leuer stub and was connected to a Harvard Apparatus small animal respirator. The animal was ventilated at a constant rate and volume (52 breaths/minute and 1 mL room air/[…] body weight). Airway pressure was measured using a Statham pressure transducer connected to the side port of the tracheal cannula. The arterial blood pressure was measured using a Statham pressure transducer connected to the carotid artery. Both transducers were connected to a Gould chart recorder to produce the desired physiographs.
After allowing the animal to stabilize for 10 minutes, aerosolized histamine (0.01%) was delivered to the airways using a DeVilbiss ultrasonic nebulizer connected in-line between the respirator and the guinea pig. After the maximum bronchoconstriction was reached, as evidenced by a maximum plateau in airway pressure, an injection of vehicle (0.6 mL) was administered via the jugular vein. […] At the end of the experiment, terbutaline sulfate (1 mg/mL), a beta agonist, was injected i.v. to determine if further bronchodilation could be achieved The nebulizer was then turned off and the minimum airway pressure was recorded to determine the final baseline pressure.
ED50 (mg/kg) values and maximum effect (%) were calculated using SAS and PROBIT computer analyses. […] The maximum effect is the maximum percent reversal of histamine-induced bronchoconstriction produced by the test compound.

responses to adenosine = conditions: all tissues studied, except rat hippocampus; cited from earlier work
[4] = bronchial asthma; cited from earlier work
[5] = cited from earlier work
[6] = test system: A1 and A2 adenosine receptors; conditions: A1 versus A2; cited from earlier work
[7] = rats, i.v., dose for 40% recovery in dP/dt, extrapolated or estimated by probit, read-out: RD40, dP/dt
[8] = rats, i.v., extrapolated or estimated by probit, read-out: RD40, heart rate

| SMILES | Basal blood pressure [1] [%] | Basal heart rate [1] [%] | ED40 [2, 7] [mg/kg] | ED40 [2, 8] [mg/kg] | dP/dt, maximum recovery ([2]; rats, i.v.) [%] | heart rate, maximum recovery dose ([2]; rats, i.v.) [mg/kg] | ED50 [3] [mg/kg] | maximum effect (maximum percent reversal of histamine-induced bronchoconstriction) [3] [%] | effectiveness in diminishing responses to adenosine (responses to adenosine) | vital capacity [4] | cardiac stimulation ([5]; in vivo) | perfusion of organs ([5]; in vivo) | peripheral vascular resistance ([5]; in vivo) | heart rate ([5]; therapeutic doses, effect short-lived in man) | effectiveness in displacing ligands from both the A1 and A2 adenosine receptors [6] | ED40 ([2]; read-out: RD40, dP/dt) [mg/kg] | ED40 ([2]; read-out: RD40, heart rate) [mg/kg] |
| --- | --- | --- | --- | --- | --- | --- | --- | --- | --- | --- | --- | --- | --- | --- | --- | --- | --- |
| CCCn1c(=O)c2[nH]c(C3CCC(O)C3)nc2n(CCC)c1=O (mixture of isomers) [cis/trans] | 65 ± 3 | 86 ± 4 | 19 | 20 | 30 | 30 | 20.3 ± 4.6 | 64.0 ± 4.8 |  |  |  |  |  |  |  |  |  |
| CCCn1c(=O)c2[nH]c([C@H]3CC[C@@H](O)C3)nc2n(CCC)c1=O (relative stereo) [cis, cis-8-(3-hydroxycyclopentyl)-1,3-dipropylxanthine] | 90 ± 5 | 106 ± 3 | 17.7 | 120 | 53 | 20 | 14.1 ± 3.6 | 72.8 ± 6.8 |  |  |  |  |  |  |  |  |  |
| CCCn1c(=O)c2[nH]c([C@H]3CC[C@H](O)C3)nc2n(CCC)c1=O (relative stereo) [trans, trans-8-(3-hydroxycyclopentyl)-1,3-dipropylxanthine] | 96 ± 8 | 107 ± 5 | 7.8 | 3.1 | 71 | 120 | 11.6 ± 1.6 | 78.5 ± 4.0 |  |  |  |  |  |  |  |  |  |
| Nc1cc(-c2ccncc2)c[nH]c1=O [Amrinone] |  |  | 4.12 | 77 | 63 | 10 |  |  |  |  |  |  |  |  |  |  |  |
| CCCn1c(=O)[nH]c(=O)c2[nH]cnc21 [Enprofylline, 3-propylxanthine] | 76 ± 10 | 120 ± 6 | 48 | 93 | 30 | 50 | 13.1 ± 3.1 | 84.8 ± 3.6 | much less effective than theophylline |  |  |  |  |  |  |  |  |
| Cn1c(=O)c2[nH]cnc2n(C)c1=O [Theophylline] | 66 ± 8 | 132 ± 4 |  |  | 50 | 50 | 35.1 ± 5.3 | 72.8 ± 6.6 |  | demonstrable increase in vital capacity | sometimes powerful cardiac stimulation | increased perfusion of most organs | modest decreases in peripheral vascular resistance | modest increases in heart rate | about equally effective | 18 | 94 |
| Cn1c(=O)c2c(ncn2C)n(C)c1=O [caffeine] |  |  |  |  |  |  |  |  |  |  |  |  |  |  | about equally effective |  |  |
